The supplement of paper PMC6580486

Tested on: PCB490-3 (human epithelioid sarcoma primary culture)
Procedure: (§1)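 Roche open-access kinase inhibitor screen (223 compounds) on human epithelioid sarcoma primary cultures from three spatially distinct regions of tumor PCB490. 384-well plates, 72 h, CellTiter-Glo viability; IC50 by Hill curve fit. 100000 nM = no IC50 reached. Compound ids carry a plate-well prefix, which is stripped.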

| Structure (SMILES) | IC50 cell viability |
| --- | --- |
| Cn1cc(C2=C(c3cn(CCCCCN)c4ccccc34)C(=O)NC2=O)c2ccccc21 | > 100 µM |
| Cn1c(=O)c(Oc2ccc(F)cc2)cc2cnc(NC3CCOCC3)nc21 | > 100 µM |
| CC(C)Nc1ncc2cc(Oc3ccc(F)cc3F)c(=O)n(C)c2n1 | > 100 µM |
| CS(=O)(=O)CCn1c(=O)c(Oc2ccc(F)cc2F)cc2cnc(NC3CCOCC3)nc21 | > 100 µM |

Tested on: PCB490-5 (human epithelioid sarcoma primary culture)
Procedure: as §1

| Structure (SMILES) | IC50 cell viability |
| --- | --- |
| Cn1cc(C2=C(c3cn(CCCCCN)c4ccccc34)C(=O)NC2=O)c2ccccc21 | > 100 µM |
| Cn1c(=O)c(Oc2ccc(F)cc2)cc2cnc(NC3CCOCC3)nc21 | > 100 µM |
| CC(C)Nc1ncc2cc(Oc3ccc(F)cc3F)c(=O)n(C)c2n1 | > 100 µM |
| CS(=O)(=O)CCn1c(=O)c(Oc2ccc(F)cc2F)cc2cnc(NC3CCOCC3)nc21 | > 100 µM |

Tested on: PCB490-4 (human epithelioid sarcoma primary culture)
Procedure: as §1

| Structure (SMILES) | IC50 cell viability |
| --- | --- |
| Cn1cc(C2=C(c3cn(CCCCCN)c4ccccc34)C(=O)NC2=O)c2ccccc21 | > 100 µM |
| Cn1c(=O)c(Oc2ccc(F)cc2)cc2cnc(NC3CCOCC3)nc21 | > 100 µM |
| CC(C)Nc1ncc2cc(Oc3ccc(F)cc3F)c(=O)n(C)c2n1 | > 100 µM |
| CS(=O)(=O)CCn1c(=O)c(Oc2ccc(F)cc2F)cc2cnc(NC3CCOCC3)nc21 | > 100 µM |

Tested on: U23674 (mouse alveolar rhabdomyosarcoma primary culture);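 further: alveolar rhabdomyosarcoma tumor culture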

| Structure (SMILES) | IC50 cell viability |
| --- | --- |
| NS(=O)(=O)c1ccc(N=Nc2c(O)[nH]c3ccc(Cl)cc23)cc1 | > 10 µM |
| Cc1nnc(-c2ccc(C)c(-c3ccc(C(=O)Nc4cccc(C#N)c4)cc3)c2)o1 | > 10 µM |
| CCc1cccc(CC)c1/C=C/c1cncc(C(=O)NC)c1 | > 10 µM |
| CCc1nn2ncccc2c1-c1ccnc(NC2CC2)n1 | > 10 µM |
| CN(C)C(=O)O[C@H]1CN[C@H](C#Cc2cc3ncnc(Nc4ccc(OCc5cccc(F)c5)c(Cl)c4)c3s2)C1 | > 10 µM |
| COc1ccc2cc(-c3c(-c4ccncc4)nc(-c4ccc([S+](C)[O-])cc4C)n3C)ccc2c1 (centres undefined) | > 10 µM |
| COc1cc2c(cc1Nc1nc(Nc3cccc(F)c3C(N)=O)c3cc[nH]c3n1)N(C(=O)CN1CCN(C(C)C)CC1)CC2 | 3.2 µM |
| Clc1ccc(CNc2nccc(-c3cnn4ncccc34)n2)cc1 | > 10 µM |
| Nc1nccc(-c2c(-c3ccc(F)cc3)ncn2CCCN2CCOCC2)n1 | > 10 µM |
| COC(=O)c1cncc(/C=C/c2c(C)cc(O)cc2C)c1 | > 10 µM |
| Cc1ccc(C(=O)NC2CCCCC2)cc1-c1ccc(C(=O)NCC2CC2)cc1 | > 10 µM |
| FC(F)(F)CNc1nccc(-c2cnn3ncccc23)n1 | 4.4 µM |
| COC(=O)c1sc(-n2cnc3cc(OC)c(OC)cc32)cc1OCc1ccccc1C(F)(F)F | > 10 µM |
| CCN1CCC(C(=O)Nc2n[nH]c3nnc(-c4cccc(F)c4F)cc23)CC1 | > 10 µM |
| CNC(=O)c1sc(-n2cnc3cc(OC)c(OC)cc32)cc1OCc1ccccc1C(F)(F)F | > 10 µM |
| COc1ccccc1Nc1ncc(-c2ccccc2)o1 | > 10 µM |
| COC(=O)Nc1nc2ccc(Oc3ccc(NC(=O)Nc4cc(C(F)(F)F)ccc4F)cc3)cc2s1 | > 10 µM |
| NC(=O)c1cc(-c2ccncc2)cc(-c2ccccc2)c1N | > 10 µM |
| O=C(O[C@H]1CN[C@H](C#Cc2cc3ncnc(Nc4ccc(OCc5cccc(F)c5)c(Cl)c4)c3s2)C1)N1CCOCC1 | > 10 µM |

| Structure (SMILES) | IC50 cell viability |
| --- | --- |
| COc1cc2ncn(-c3cc(O[C@@H](C)c4ccccc4Cl)c(C(N)=O)s3)c2cc1OC | > 10 µM |
| O=C1Nc2ccc(-c3cccnc3)cc2C1=Cc1cc(Br)c(O)c(Br)c1 | > 10 µM |
| COc1cc(/C=N/Nc2ncnc3[nH]ncc23)ccc1O | > 10 µM |
| CC1=C(C(=O)Nc2ccc3[nH]ncc3c2)C(c2ccc3ccccc3c2)CC(=O)N1 (centres undefined) | > 10 µM |
| CS(=O)(=O)CCNCc1ccoc1-c1ccc2ncnc(Nc3ccc(OCc4ccccc4)cc3)c2c1 | > 10 µM |
| CCS(=O)(=O)c1ccc(OC)c(Nc2ncc(-c3ccccc3Cl)o2)c1 | > 10 µM |
| Cc1ccc2c(-c3ccnc(Nc4cccc(C(F)(F)F)c4)n3)c(-c3ccccc3)nn2n1 | > 10 µM |
| CN1CCN(C(=O)c2ccc(NC(=O)Nc3ccc(N(C)c4ccnc(Nc5ccc(CS(C)(=O)=O)cc5)n4)cc3)cc2)CC1 | > 10 µM |
| c1ccc(-c2[nH]ncc2-c2ccnc(-c3ccc(OCCn4ccnc4)cc3)c2)nc1 | > 10 µM |
| COc1cc(C)c(N(C)C(=O)CN(C)C)cc1Nc1nc(Nc2cccc(F)c2C(N)=O)c2cc[nH]c2n1 | > 10 µM |
| OCCCNc1nccc(-c2c(-c3ccc(F)cc3)nn3cc(C(F)(F)F)ccc23)n1 | > 10 µM |
| CN1CCC(n2cnc(-c3ccc(F)cc3)c2-c2ccnc(Nc3ccccc3)n2)CC1 | > 10 µM |
| FC(F)(F)c1cccc(Nc2nccc(-c3cnn4nc(-c5ccccc5)ccc34)n2)c1 | > 10 µM |
| Cc1ccc(O)cc1Nc1ccnc2cc(-c3ccccn3)ccc12 | > 10 µM |
| COc1ccc2ncn(-c3cc(O[C@H](C)c4ccccc4Cl)c(C(N)=O)s3)c2c1 | 2 µM |
| CN1CCC(n2cnc(-c3ccc(F)cc3)c2-c2ccnc(N)n2)CC1 | > 10 µM |
| COc1ccc(-c2nn3ncccc3c2-c2ccnc(Nc3cccc(C(F)(F)F)c3)n2)cc1 | > 10 µM |
| COc1cc2c(cc1Nc1nc(N3CCc4ccccc43)c3cc[nH]c3n1)N(C(=O)CN(C)C)CC2 | 0.05 µM |
